From patent US8461150B2, “Chalcone linked pyrrolo[2,1-c][1, 4]benzodiazepine hybrids as potential anticancer agents and process for the preparation thereof” (Council of Scientific & Industrial Research, priority 2008, dated 2013)

Columns and labels:
[1] = tested on: duplex-form calf thymus DNA (CT-DNA); assay: Thermal denaturation studies with calf thymus DNA; assay type: binding; conditions: [PBD]:[DNA] molar ratio 1:5, CT-DNA 100 μM, ligand 20 μM, pH 7.00; for ΔTμ (° C.) after incubation at 37 °C. for 0 h: 0 h incubation; for ΔTμ (° C.) after incubation at 37 °C. for 18 h: 18 h incubation
Method: These compounds have also been subjected to thermal denaturation studies with duplex-form calf thymus DNA (CT-DNA) using an modification of a reported procedure. Working solutions in aqueous buffer (10 mM NaH2PO4/Na2HPO4, 1 mM Na2EDTA, pH 7.00+0.01) containing CT-DNA (100 μm in phosphate) and the PBD (20 μm) have been prepared by addition of concentrated PBD solutions in DMSO to obtain a fixed [PBD]/[DNA] molar ratio of 1:5. The DNA-PBD solutions have been incubated at 37° C. for 0 and 18 h prior to analysis. Samples have been monitored at 260 nm using a Beckman DU-800 spectrophotometer fitted with high performance temperature controller, and heated at 1° C. min^−1 in the 40-110° C. range. DNA helix→coil transition temperatures (Tm) have been obtained from the maxima in the d(A260)/d T derivative plots. Drug-induced alterations in DNA melting behavior are given by: ΔTm=Tm(DNA+PBD)−Tm(DNA alone), where the Tm value for the PBD-free CT-DNA is 68.5±0.01.

Breast cancer cell lines = assay: NCI in vitro anticancer screen, SRB assay, 48 h, panel average; assay type: cell-based, human; conditions: average of six to eight cell lines, 48 h exposure
Method: (§1) Biological Activity: The in vitro cell line studies were carried out at the National Cancer Institute, Maryland, USA.
(§2) Cytotoxicity: • The compounds 6b) 7-Methoxy-8-{4-[1-(4-fluorophenyl)-3-(4-hydroxy-3-methoxyphenyl)-2-propen-1-one]butyl}-oxy-(11aS)-1,2,3,11a-5H-pyrrolo[2,1-c][1,4]benzodiazepin-5-one; • (6c) 7-Methoxy-8-{5-[1-(4-fluorophenyl)-3-(4-hydroxy-3-methoxyphenyl)-2-propen-1-one]pentyl}-oxy-(11aS)-1,2,3,11a-5H-pyrrolo[2,1-c][1,4]benzodiazepin-5-one; • (6g) 7-Methoxy-8-{3-[1-(2-hydroxyphenyl)-3-(4-hydroxy-3-methoxyphenyl)-2-propen-1-one]propyl}-oxy-(11aS)-1,2,3,11a-5H-pyrrolo[2,1-c][1,4]benzodiazepin-5-one; • (10a) 7-Methoxy-8-{3-[3-(4-hydroxy-3-methoxyphenyl)-1-(2,4-dimethyl-3-quinolyl)-2-propen-1-one]propyl}-oxy-(11aS)-1,2,3,11a-5H-pyrrolo[2,1-c][1,4]benzodiazepin-5-one • (10b) 7-Methoxy-8-{4-[3-(4-hydroxy-3-methoxyphenyl)-1-(2,4-dimethyl-3-quinolyl)-2-propen-1-one]butyl}-oxy-(11aS)-1,2,3,11a-5H-pyrrolo[2,1-c][1,4]benzodiazepin-5-one; were evaluated for in vitro anticancer activity against […] derived from […] (leukemia, ovarian, renal, melanoma, CNS, colon, prostate, lung, cervix and breast cancer) as shown in (Table 1, 2 and 3)
(§3) 6b, 6c, 6g, 10a and 10b were evaluated for in vitro anticancer activity against sixty human tumour cells derived from nine cancer types (leukemia, non-small-cell lung, colon, CNS, melanoma, ovarian, prostate, renal and breast cancer) as shown in (Table 1 and 2). For the compound, dose response curves for each cell line were measured at a minimum of five concentrations at 10 fold dilutions. A protocol of 48 h continuous drug exposure was used and a sulforhodamine B (SRB) protein assay was used to estimate cell viability or growth. The concentration causing 50% cell growth inhibition (GI50), total cell growth inhibition (TGI 0% growth) and 50% cell death (LC50, −50% growth) compared with the control was calculated.
(§4) Each cancer type represents the average of six to eight different cancer cell lines.

CNS cancer cell lines = assay: as above; assay type: cell-based, human; conditions: average of six to eight cell lines, 48 h exposure
Method: as §1, §2, §3, §4

Colon cancer cell lines = assay: as above; assay type: cell-based, human; conditions: average of six to eight cell lines, 48 h exposure
Method: as §1, §2, §3, §4

[2] = tested on: Leukemia cancer cell lines; assay: as above; assay type: cell-based, human; conditions: average of six to eight cell lines, 48 h exposure
Method: as §1, §2, §3, §4

[3] = tested on: Melanoma cancer cell lines; assay: as above; assay type: cell-based, human; conditions: average of six to eight cell lines, 48 h exposure
Method: as §1, §2, §3, §4

[4] = tested on: Non-small cell lung cancer cell lines; assay: as above; assay type: cell-based, human; conditions: average of six to eight cell lines, 48 h exposure
Method: as §1, §2, §3, §4

[5] = tested on: Ovarian cancer cell lines; assay: as above; assay type: cell-based, human; conditions: average of six to eight cell lines, 48 h exposure
Method: as §1, §2, §3, §4

[6] = tested on: Prostate cancer cell lines; assay: as above; assay type: cell-based, human; conditions: average of six to eight cell lines, 48 h exposure
Method: as §1, §2, §3, §4

Renal cancer cell lines = assay: as above; assay type: cell-based, human; conditions: average of six to eight cell lines, 48 h exposure
Method: as §1, §2, §3, §4

human tumour cell lines = assay: In vitro cytotoxicity, mean graph midpoints (MG_MID) over human tumour cell lines; assay type: cell-based; conditions: human tumour cell lines, 48 h exposure, SRB
Method: as §1, §3

786-0 (Renal) = assay: Cytotoxicity in selected cancer cell lines (SRB, 48 h); assay type: cell-based, human
Method: as §1, §3
(§5) Each cancer type represents the average of six to nine different cancer cell lines. In vitro evaluation of cytotoxic activity. The compound 6b, 6c, 6g 10a and 10b were evaluated for in vitro anticancer activity against nine human tumour cells derived from six cancer types (leukemia, colon, prostate, melanoma, ovarian, lung, cervix and breast cancer) as shown in Table 3. […] Compounds 6b, 6c, 6g, 10a and 10b have been evaluated for their in vitro cytotoxicity in selected human cancer cell lines of colon (Colo205), lung (NCI-H522, NCI-H226), colon (colo-205), prostate (DU145, PC3), ovarian (IGROV1, HT1080), and breast (MDA-MB-435, Zr-75-1), melanoma (LOXMIVI, VACC-62, SK-MEL-5) origin. A protocol of 48 h continuous drug exposure has been used and an […] has been used to estimate cell viability or growth. The results are expressed as percent of cell growth determined relative to that of untreated control cells

A498 (Renal) = assay: as above; assay type: cell-based, human
Method: as §1, §3, §5

ACHN (Renal) = assay: as above; assay type: cell-based, human
Method: as §1, §3, §5

CAKI-1 (Renal) = assay: as above; assay type: cell-based, human
Method: as §1, §3, §5

CCRF-CEM (Leukemia) = assay: as above; assay type: cell-based, human
Method: as §1, §3, §5

HCT-116 (Colon) = assay: as above; assay type: cell-based, human
Method: as §1, §3, §5

HCT-15 (Colon) = assay: as above; assay type: cell-based, human
Method: as §1, §3, §5

HL-60(TB) (Leukemia) = assay: as above; assay type: cell-based, human
Method: as §1, §3, §5

LOX IMVI (Melanoma) = assay: as above; assay type: cell-based, human
Method: as §1, §3, §5

M14 (Melanoma) = assay: as above; assay type: cell-based, human
Method: as §1, §3, §5

MALME-3M (Melanoma) = assay: as above; assay type: cell-based, human
Method: as §1, §3, §5

MDA-MB-231/ATCC (Breast) = assay: as above; assay type: cell-based, human
Method: as §1, §3, §5

[7] = tested on: NCI-H226 (Non-small cell lung); assay: as above; assay type: cell-based, human
Method: as §1, §3, §5

[8] = tested on: NCI-H23 (Non-small cell lung); assay: as above; assay type: cell-based, human
Method: as §1, §3, §5

[9] = tested on: NCI-H522 (Non-small cell lung); assay: as above; assay type: cell-based, human
Method: as §1, §3, §5

NCI/ADR-RES (Breast) = assay: as above; assay type: cell-based, human
Method: as §1, §3, §5

OVCAR-3 (Ovarian) = assay: as above; assay type: cell-based, human
Method: as §1, §3, §5

RPMI-8226 (Leukemia) = assay: as above; assay type: cell-based, human
Method: as §1, §3, §5

SF-539 (CNS) = assay: as above; assay type: cell-based, human
Method: as §1, §3, §5

SK-MEL-5 (Melanoma) = assay: as above; assay type: cell-based, human
Method: as §1, §3, §5

SW-620 (Colon) = assay: as above; assay type: cell-based, human
Method: as §1, §3, §5

TK-10 (Renal) = assay: as above; assay type: cell-based, human
Method: as §1, §3, §5

U251 (CNS) = assay: as above; assay type: cell-based, human
Method: as §1, §3, §5

UACC-257 (Melanoma) = assay: as above; assay type: cell-based, human
Method: as §1, §3, §5

UACC-62 (Melanoma) = assay: as above; assay type: cell-based, human
Method: as §1, §3, §5

UO-31 (Renal) = assay: as above; assay type: cell-based, human
Method: as §1, §3, §5

COc1cc(C=CC(=O)c2ccc(F)cc2)ccc1OCCCOc1cc2c(cc1OC)C(=O)N1CCC[C@H]1C=N2 [6a, 7-Methoxy-8-{3-[1-(4-fluorophenyl)-3-(4-hydroxy-3-methoxyphenyl)-2-propen-1-one]propyl}-oxy-(11aS)-1,2,3,11a-5H-pyrrolo[2,1-c][1,4]benzodiazepin-5-one]
ΔTμ (° C.) after incubation at 37 °C. for 0 h [1]: 1.7 °C
ΔTμ (° C.) after incubation at 37 °C. for 18 h [1]: 2.4 °C

COc1cc(C=CC(=O)c2ccccc2O)ccc1OCCCOc1cc2c(cc1OC)C(=O)N1CCC[C@H]1C=N2 [6d, 7-Methoxy-8-{3-[1-(2-hydroxyphenyl)-3-(4-hydroxy-3-methoxyphenyl)-2-propen-1-one]propyl}-oxy-(11aS)-1,2,3,11a-5H-pyrrolo[2,1-c][1,4]benzodiazepin-5-one]
ΔTμ (° C.) after incubation at 37 °C. for 0 h [1]: 2.1 °C
ΔTμ (° C.) after incubation at 37 °C. for 18 h [1]: 2.6 °C

COc1cc(/C=C/C(=O)c2ccc(O)cc2)ccc1OCCCOc1cc2c(cc1OC)C(=O)N1CCC[C@H]1C=N2 [6g, 7-Methoxy-8-{3-[1-(4-hydroxyphenyl)-3-(4-hydroxy-3-methoxyphenyl)-2-propen-1-one]propyl}-oxy-(11aS)-1,2,3,11a-5H-pyrrolo[2,1-c][1,4]benzodiazepin-5-one]
Log GI50 (concentration in mol/L causing 50% growth inhibition) (Breast cancer cell lines): −6.57 mol/L
Log GI50 (concentration in mol/L causing 50% growth inhibition) (CNS cancer cell lines): −5.62 mol/L
Log GI50 (concentration in mol/L causing 50% growth inhibition) (Colon cancer cell lines): −5.85 mol/L
Log GI50 (concentration in mol/L causing 50% growth inhibition) [2]: −5.62 mol/L
Log GI50 (concentration in mol/L causing 50% growth inhibition) [3]: −5.65 mol/L
Log GI50 (concentration in mol/L causing 50% growth inhibition) [4]: −5.82 mol/L
Log GI50 (concentration in mol/L causing 50% growth inhibition) [5]: −5.56 mol/L
Log GI50 (concentration in mol/L causing 50% growth inhibition) [6]: −4.63 mol/L
Log GI50 (concentration in mol/L causing 50% growth inhibition) (Renal cancer cell lines): −5.67 mol/L
Log10LC50 mean graph midpoint (MG_MID) (human tumour cell lines; 50% cell death): −4.58
Log10GI50 mean graph midpoint (MG_MID) (human tumour cell lines): −5.78
Log10TGI mean graph midpoint (MG_MID) (human tumour cell lines; total cell growth inhibition): −5.86
GI50 (786-0 (Renal)): 24.9 µM
GI50 (A498 (Renal)): 29 µM
GI50 (ACHN (Renal)): 46.1 µM
GI50 (CAKI-1 (Renal)): 22.9 µM
GI50 (CCRF-CEM (Leukemia)): 37.4 µM
GI50 (HCT-116 (Colon)): 14.6 µM
GI50 (HCT-15 (Colon)): 18.4 µM
GI50 (HL-60(TB) (Leukemia)): 49.5 µM
GI50 (LOX IMVI (Melanoma)): 15 µM
GI50 (M14 (Melanoma)): 18.8 µM
GI50 (MALME-3M (Melanoma)): 36.2 µM
GI50 (MDA-MB-231/ATCC (Breast)): 14.2 µM
GI50 [7]: 28.4 µM
GI50 [8]: 22.5 µM
GI50 [9]: 18.3 µM
GI50 (NCI/ADR-RES (Breast)): 28.7 µM
GI50 (OVCAR-3 (Ovarian)): 46.3 µM
GI50 (RPMI-8226 (Leukemia)): 46.8 µM
GI50 (SF-539 (CNS)): 33.7 µM
GI50 (SK-MEL-5 (Melanoma)): 23.3 µM
GI50 (SW-620 (Colon)): 26.9 µM
GI50 (TK-10 (Renal)): 31.4 µM
GI50 (U251 (CNS)): 19.8 µM
GI50 (UACC-257 (Melanoma)): 15.9 µM
GI50 (UACC-62 (Melanoma)): 22.5 µM
GI50 (UO-31 (Renal)): 45.2 µM

COc1cc(C=CC(=O)c2c(C)nc3ccccc3c2C)ccc1OCCCCCOc1cc2c(cc1OC)C(=O)N1CCC[C@H]1C=N2 [10c, 7-Methoxy-8-{5-[3-(4-hydroxy-3-methoxyphenyl)-1-(2,4-dimethyl-3-quinolyl)-2-propen-1-one]pentyl}-oxy-(11aS)-1,2,3,11a-5H-pyrrolo[2,1-c][1,4]benzodiazepin-5-one]
ΔTμ (° C.) after incubation at 37 °C. for 0 h [1]: 4.7 °C
ΔTμ (° C.) after incubation at 37 °C. for 18 h [1]: 5.1 °C

COc1cc(C=CC(=O)c2c(C)nc3ccccc3c2C)ccc1OCCCCCCOc1cc2c(cc1OC)C(=O)N1CCC[C@H]1C=N2 [10d, 7-Methoxy-8-{6-[3-(4-hydroxy-3-methoxyphenyl)-1-(2,4-dimethyl-3-quinolyl)-2-propen-1-one]hexyl}-oxy-(11aS)-1,2,3,11a-5H-pyrrolo[2,1-c][1,4]benzodiazepin-5-one]
ΔTμ (° C.) after incubation at 37 °C. for 0 h [1]: 4.9 °C
ΔTμ (° C.) after incubation at 37 °C. for 18 h [1]: 5.3 °C

COc1cc2c(cc1O)N=CC1CCCN1C2=O (stereo not drawn) [DC-81, reference compound]
ΔTμ (° C.) after incubation at 37 °C. for 0 h [1]: 0.3 °C
ΔTμ (° C.) after incubation at 37 °C. for 18 h [1]: 0.7 °C
